“Also recorded” adds a separate entry of the source. Blank lines part the entries; values can stand above or below the molecule they belong to.
Key:
[1] = system: Balb/c mice sensitized with OVA; experiment: OVA allergic asthma model, intranasal application of test substance; assay type: in vivo, mouse; settings: for Bronchoalveolar lavage (BAL) eosinophil numbers / AHR to increasing doses of methacholine: 12 intranasal applications d0-d26, analysis day 28; for Bronchoalveolar lavage (BAL) eosinophil numbers: FIG. 10; for AHR to increasing doses of methacholine: FlexiVent, FIG. 11
Method: Control mice were sham sensitized to PBS. Error bars reflect SEM. P values reflect one-way ANOVA, *: p value<0.05, **: p value<0.01; (FA: (E)-12-oxoheptadec-10-enaic acid).
Control mice were sham sensitized to PBS. Error bars reflect SEM. (FA: (E)-12-oxoheptadec-10-enaic acid).
Balb/c mice were first be sensitized with 10 μg OVA in Alum i.p. on day 0, 7 and 14. Three consecutive intranasal challenges with 100 μg OVA on day 25, 26 and 27, with analysis being undertaken on day 28, follows. From d0-d26 there were 12 consecutive intranasal applications of test substance. Asthma pathogenesis was assessed using methacholine lung function challenge to examine AHR as undertaken in allergic asthma patients. Furthermore, pathological manifestations such as eosinophilia was assessed. • Sensitzation: 10 μg valbumin (OVA Grade VI, Sigma, Stainheim, D) dissolved in 100 μl PBS on days 0, 7 and 14 of the assay protocol together with 100 μl (1 mg) of the adjuvant aluminium hydroxyde (Al(OH)3) (Inject Alum, Pierce, USA). • Challenge: OVA Grade V in 100 μg/mouse in 25 μl (concentration: 4 mg/ml)
Eosiniphilnumbers in the Bronchoalveolar lavage (BAL) are shown in FIG. 10. • Airway Hyperresponsivenes (AHR): Dynamic resistance and compliance (in response to increasing doses of MCh) FlexiVent results are shown in FIG. 11.

15N-bOBP = molecular target: T1, 15N-bOBP (Bos taurus, UniProt P07435); experiment: NMR binding studies (1H,15N-HSQC titration); settings: 200 μM 15N-bOBP alone or in presence of 1 mM and 2 mM fatty acid, pH 6.5, 25° C.
T1 construct: 6xHis (N, cleaved yes); Thioredoxin (Trx) (N, cleaved yes); TEV cleavage site (N, cleaved yes); made in house; host or cells: E. coli BL21 (M9 minimal medium for 15N labelling)
T1 sequence (P07435 with tags, fused parts or gaps): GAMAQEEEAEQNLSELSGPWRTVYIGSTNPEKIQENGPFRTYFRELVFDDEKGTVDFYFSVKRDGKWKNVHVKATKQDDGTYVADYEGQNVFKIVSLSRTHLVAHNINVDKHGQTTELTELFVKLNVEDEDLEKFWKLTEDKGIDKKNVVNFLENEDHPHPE
Method: NMR binding studies. Overlay of ^1H, […] spectra of ^15N-bOBP alone and in presence of 5- and 10-fold excess of (E)-12-oxoheptadec-10-enoic acid. Arrow and inlet show CSP of exemplary peak. Arrows and inlets show CSP of exemplary peaks.
NMR measurements were performed in 3 mm tubes at 25° C. on a Bruker Avance III spectrometer operating at 600 MHz ^1H frequencies using H/N/C triple-resonance cryogenic probes. To confirm fatty acid binding, two-dimensional ^1H, ^15N heteronuclear single quantum correlation (HSQC) spectra were recorded of 200 μM ^15N-bOBP in 20 mM phosphate buffer pH 6.5, 50 mM NaCl, 1 mM β-mercaptoethanol and 10% (v/v) D20 alone or in presence of 1 mM and 2 mM fatty acid.

16HBE cells = experiment: TEER assay, epithelial barrier function; assay type: cell-based; settings: 20 μg/ml, 24 hours after treatment; compared with cow SDE at 200 μg/ml; FIG. 6
Method: TEER Assay: 16HBE: untreated cells; Farm dust (Hec 20)=Cow shed dust extract>10 kDa autoclaved, 200 μg/ml; Bosd2+FA=His-Trx-Bos d2+(E)-12-oxoheptadec-10-enaic acid, 20 μg/ml; OBP+FA=bOBP+(E)-12-oxoheptadec-10-enaic acid, 20 μg/ml.
To examine the effect of the Lipoproteins Bos d2+FA and OBP+FA on the epithelial barrier function as measured by transepithelial electrical resistance (TEER). 16HBE (100.000 (1×10*5)) cells were seeded on transwell inserts in […] medium (MEM with Earle's salt, 10% FBS (during cultivation only, during assay no FBS), 1% L-Glutamine, 1% Penicillin/Streptomycin). After 24 hours of culture, cells were treated with the indicated compounds, and 24 hours after treatment, TEER values were determined using an EVOM2 epithelial voltohmmeter (World Precision Instruments). Cow SDE was used at 200 μg/ml, all other compounds were used at 20 μg/ml.

human TLR2 = molecular target: T2, human TLR2 (Homo sapiens, UniProt O60603); experiment: Activation of TLR-2, NFkB induction in HEK-Blue-hTLR2 cells (SEAP reporter); assay type: cell-based; settings: human TLR2 transfected HEK cells; positive control Pam3CSK4; FIG. 5
T2 construct: host or cells: HEK293 (HEK-Blue-hTLR2)
T2 sequence (O60603 21-784): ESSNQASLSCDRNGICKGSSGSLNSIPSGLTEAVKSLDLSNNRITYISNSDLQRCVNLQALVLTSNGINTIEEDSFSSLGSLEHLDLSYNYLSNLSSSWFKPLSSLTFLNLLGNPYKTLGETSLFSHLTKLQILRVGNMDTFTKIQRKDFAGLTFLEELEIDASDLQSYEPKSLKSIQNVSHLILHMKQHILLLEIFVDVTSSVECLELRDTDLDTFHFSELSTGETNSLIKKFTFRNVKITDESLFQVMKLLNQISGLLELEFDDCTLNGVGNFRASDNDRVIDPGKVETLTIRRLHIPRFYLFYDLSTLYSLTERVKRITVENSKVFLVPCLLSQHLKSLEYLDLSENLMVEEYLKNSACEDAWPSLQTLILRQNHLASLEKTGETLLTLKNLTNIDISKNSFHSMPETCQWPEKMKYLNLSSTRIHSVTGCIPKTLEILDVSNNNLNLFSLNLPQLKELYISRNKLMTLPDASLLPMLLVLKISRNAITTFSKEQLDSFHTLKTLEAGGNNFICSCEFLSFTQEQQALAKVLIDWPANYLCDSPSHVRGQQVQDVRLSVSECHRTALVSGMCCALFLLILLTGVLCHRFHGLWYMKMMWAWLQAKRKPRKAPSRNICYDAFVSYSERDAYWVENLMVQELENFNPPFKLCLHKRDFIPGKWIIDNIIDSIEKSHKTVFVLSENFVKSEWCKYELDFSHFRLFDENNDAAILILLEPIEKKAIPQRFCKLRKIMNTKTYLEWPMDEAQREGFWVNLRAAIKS
Source text: NKfB induction in HEK-hTLR2. Dotted line: PBS/DMSO (negative control); Pam3CSK4=positive control; Farm dust (Hec 20)=Cow shed dust extract>10 kDa autoclaved; Bosd2+FA=His-Trx-Bos d2+€-12-oxoheptadec-10-enaic acid; OBP+FA=bOBP+€-12-oxoheptadec-10-enaic acid; OBP=bOBP; FA=€-12-oxoheptadec-10-enaic acid.
HEK-Blue™-hTLR2 cells (InvivoGen) are obtained by co-transfection of the human TLR2 and SEAP (secreted embryonic alkaline phosphatase) genes into HEK293 cells. The SEAP reporter gene is placed under the control of the IFN-β minimal promoter fused to five NF-κB and AP-1-binding sites. Additionally, the CD14 co-receptor gene was transfected into these cells to enhance the TLR2 response. Stimulation with a TLR2 ligand activates NF-κB and AP-1, which in turn induce the production of SEAP. Levels of SEAP are determined with HEK-Blue™ Detection, a cell culture medium that allows for real-time detection of SEAP.

[2] = system: OVA pulsed BMDCs cocultured with OT-II CD4 T cells; experiment: DC/T-cell interaction assay; assay type: cell-based, mouse; settings: pre-treatment of BMDCs (two treatments), LPS stimulation, FIG. 8
Method: Effect of lipoprotein candidates on DC T-cell interaction: OVA pulsed BMDCs enhanced OT-II CD4 T cell number (Medium), which was prevented by pre-treatment of BMDCs with, Bos d2+FA and OPB+FA. CD4+ count: For each sample 10400 counting beads were added to tube and 5000 beads were counted for recording. CD4+ count indicates the amount of CD4+ cells contained in the volume needed to count 5000 beads. (FA: (E)-12-oxoheptadec-10-enaic acid).
DCs are professional antigen presenting cells crucial for the priming of CD4 T cells in asthma and allergy. The mouse primary bone marrow derived DCs (BMDCs) were utilized to evaluate the ability of the test substances to modulate their activation. DC activation is monitored their ability to regulate the differentiation and proliferation of OVA-specific CD4 T cells (OT-II) following DC pulsing with the OVA peptide.
For this assay, bone marrow derived DCs are isolated from C57B16 mice and put into culture. […]
Isolate bone marrow from wild-type C57BL/6 mouse and seed cells in 10 ml Petri dishes in 10 ml volume (2 million cells/dish) containing 20 ng/ml rmGM-CSF. […] Cells were then collected and counted with the help of counting beads and seeded in V bottom 96 well plates (10000 cells/well) and pulsed with OVA peptide (323-339) for 3 hours. […] 20000 stained T Cells were cocultured with DCs for […], and T Cells were then analyzed with flow cytometry.

Molecule: CCCCCC(=O)/C=C/CCCCCCCCC(=O)O [FA, (E)-12-oxoheptadec-10-enoic acid]
Bronchoalveolar lavage (BAL) eosinophil numbers [1]: does not have an effect
AHR to increasing doses of methacholine [1]: an effect on AHR
chemical shift perturbations (CSP) in 1H,15N-HSQC spectra (15N-bOBP): chemical shift perturbations (CSP) which is indicative for ligand binding

NFkB induction in HEK-hTLR2 (TLR2 activation) (human TLR2): even stronger effect than the cow SDE
Molecule: Bos d2+FA: Lipoprotein complex of His-Trx-Bos d2 with (E)-12-oxoheptadec-10-enoic acid
transepithelial electrical resistance (TEER) (16HBE cells): stronger effect, at much lower concentration
OT-II CD4 T cell number (CD4+ count) [2]: prevented

NFkB induction in HEK-hTLR2 (TLR2 activation) (human TLR2): even stronger effect than the cow SDE
Molecule: OBP+FA: Lipoprotein complex of bOBP incubated with 5 fold molar excess of (E)-12-oxoheptadec-10-enoic acid, dialysed
transepithelial electrical resistance (TEER) (16HBE cells): stronger effect, at much lower concentration
Bronchoalveolar lavage (BAL) eosinophil numbers [1]: prevented allergic asthma
AHR to increasing doses of methacholine [1]: significant effect; also recorded: prevented allergic asthma
AHR effect compared with OBP alone ([1]; same model as E7): slightly better than for OBP alone
OT-II CD4 T cell number (CD4+ count) [2]: prevented

B1: OBP: Recombinant bovine odorant-binding protein, lipocalin family, without ligand (protein, listed as Bos taurus)
chain: AQEEEAEQNLSELSGPWRTVYIGSTNPEKIQENGPFRTYFRELVFDDEKGTVDFYFSVKRDGKWKNVHVKATKQDDGTYVADYEGQNVFKIVSLSRTHLVAHNINVDKHGQTTELTELFVKLNVEDEDLEKFWKLTEDKGIDKKNVVNFLENEDHPHPE
Bronchoalveolar lavage (BAL) eosinophil numbers [1]: prevented allergic asthma
AHR to increasing doses of methacholine [1]: significant effect; also recorded: prevented allergic asthma
NFkB induction in HEK-hTLR2 (TLR2 activation) (human TLR2): had an effect as well, but higher concentrations are needed

Source: patent US20240316187A1, “PROTEINS IDENTIFIED FROM BARN DUST EXTRACT FOR THE PREVENTION AND TREATMENT OF DISEASES” (Helmholtz Zentrum München - Deutsches Forschungszentrum für …, priority 2021, published 2024)
